Source: ChEMBL document CHEMBL1201862, “PubChem BioAssay data set” (2004)
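Growth conditions: 96-well plates. Treatment: test compound, 48 hours, 5 concentrations. Analysis: linear interpolation between bracketing concentrations; unreached endpoints set to highest concentration. Here, GI50 denotes the concentration required for 50% inhibition of growth.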 Active and inactive are the calls of the source. Cut-off read from the data, not from the text of the source: active = GI50 up to about 1.1 µM and inactive = higher.

Columns and labels:
Test in all cases: DTP human tumour cell line panel, 48 h
[1] = tested on: SK-OV-3
[2] = tested on: K562
[3] = tested on: HOP-62
[4] = tested on: OVCAR-3
[5] = tested on: PC-3
[6] = tested on: OVCAR-4
[7] = tested on: SNB-75
[8] = tested on: TK-10
[9] = tested on: IGROV-1
[10] = tested on: EKVX
[11] = tested on: MDA-N
[12] = tested on: LOX IMVI
[13] = tested on: SNB-19
[14] = tested on: DU-145
[15] = tested on: MOLT-4
[16] = tested on: T47D
[17] = tested on: MDA-MB-435
[18] = tested on: UACC-62
[19] = tested on: CCRF-CEM
[20] = tested on: NCI-H522
[21] = tested on: NCI-H460
[22] = tested on: A549
[23] = tested on: NCI-H23
[24] = tested on: RXF 393
[25] = tested on: MCF7
[26] = tested on: SK-MEL-5
[27] = tested on: SN12C
[28] = tested on: ACHN
[29] = tested on: SF-539
[30] = tested on: HCT-15
[31] = tested on: HL-60
[32] = tested on: HOP-92
[33] = tested on: RPMI-8226
[34] = tested on: SW-620
[35] = tested on: SF-295
[36] = tested on: OVCAR-5
[37] = tested on: HT-29
[38] = tested on: BT-549
[39] = tested on: SR
[40] = tested on: 786-0
[41] = tested on: UO-31
[42] = tested on: Malme-3M
[43] = tested on: UACC-257
[44] = tested on: M14
[45] = tested on: SK-MEL-2
[46] = tested on: NCI/ADR-RES
[47] = tested on: OVCAR-8
[48] = tested on: COLO 205
[49] = tested on: HCC 2998
[50] = tested on: MDA-MB-231
[51] = tested on: NCI-H226
[52] = tested on: KM12
[53] = tested on: CAKI-1
[54] = tested on: U-251
[55] = tested on: HCT-116
[56] = tested on: SK-MEL-28
[57] = tested on: SF-268
[58] = tested on: A498
[59] = tested on: Hs-578T

Measured: GI50

N#CCCN(CCCN(C(=O)Nc1ccccc1)c1ccccc1)C(=O)Nc1ccccc1
inactive: [1] > 100 µM | [2] 54.3 µM | [3] > 100 µM | [4] > 100 µM | [5] 73.3 µM | [6] > 100 µM | [7] 44.8 µM | [8] > 100 µM | [9] > 100 µM | [10] > 100 µM | [11] > 100 µM | [12] > 100 µM | [13] 64.3 µM | [14] > 100 µM | [15] 32.6 µM | [16] > 100 µM | [17] > 100 µM | [18] > 100 µM | [19] 33.7 µM | [20] > 100 µM | [21] 77.4 µM | [22] 78.9 µM | [23] 61.7 µM | [24] 46.5 µM | [25] 84.5 µM | [26] > 100 µM | [27] > 100 µM | [28] > 100 µM | [29] > 100 µM | [31] 27.2 µM | [32] 71.1 µM | [33] 53 µM | [34] > 100 µM | [35] > 100 µM | [36] > 100 µM | [37] > 100 µM | [38] > 100 µM | [39] > 100 µM | [40] > 100 µM | [41] 58.3 µM | [42] > 100 µM | [43] > 100 µM | [44] > 100 µM | [45] > 100 µM | [46] > 100 µM | [47] > 100 µM | [48] > 100 µM | [49] > 100 µM | [50] > 100 µM | [51] > 100 µM | [52] 87.9 µM | [53] 15 µM | [54] > 100 µM | [55] > 100 µM | [56] > 100 µM
> 100 µM: [30]

CC(C)(CC1(C)NC(=O)NC1=O)OCc1ccccc1 (centres undefined)
active: [31] < 0.01 µM
> 100 µM: [30]
inactive: [1] > 100 µM | [2] > 100 µM | [3] > 100 µM | [4] > 100 µM | [5] > 100 µM | [6] > 100 µM | [7] > 100 µM | [8] > 100 µM | [9] > 100 µM | [10] > 100 µM | [12] > 100 µM | [13] > 100 µM | [14] > 100 µM | [16] > 100 µM | [17] > 100 µM | [57] > 100 µM | [18] > 100 µM | [20] > 100 µM | [21] > 100 µM | [22] > 100 µM | [23] > 100 µM | [24] > 100 µM | [25] > 100 µM | [26] > 100 µM | [27] > 100 µM | [28] > 100 µM | [58] > 100 µM | [32] > 100 µM | [33] > 100 µM | [34] > 100 µM | [35] > 100 µM | [36] > 100 µM | [37] > 100 µM | [38] > 100 µM | [39] > 100 µM | [40] > 100 µM | [41] > 100 µM | [42] > 100 µM | [43] > 100 µM | [44] > 100 µM | [45] > 100 µM | [46] > 100 µM | [47] > 100 µM | [49] > 100 µM | [50] > 100 µM | [59] > 100 µM | [52] > 100 µM | [53] > 100 µM | [54] > 100 µM | [55] > 100 µM | [56] > 100 µM
